Assay results published in patent US20260035365A1, “1H-PYRROLO[3,2-B]PYRIDINE DERIVATIVES AS IRREVERSIBLE INHIBITORS OF MUTANT EGFR FOR THE TREATMENT OF CANCER” (Bayer Aktiengesellschaft, priority 2022, published 2026).

What was measured:
[1] = molecular target: mutEGFR (D770_N771insSVD) (Homo sapiens, UniProt P00533, INS767SVD); test: Exon20-mutant-EGFR (D770_N771insSVD) TR-FRET kinase assay; format: biochemical; conditions: 2 mM ATP, 15 min preincubation
Description: Inhibitory activity of compounds of the present invention against an Epidermal Growth Factor Receptor (EGFR) with an insertion of the amino acids sequence SVD between D770 and N771 (SEQ ID No. 5) was quantified employing the TR-FRET based kinase activity assay as described in the following paragraphs.
A recombinant fusion protein of N-terminal Glutathion-S-Transferase (GST) and a fragment of human EGFR variant (amino acids R669 to A1210 with insertion of the amino acids sequence SVD between D770 and N771 (SEQ ID No. 5) (“EGFR ins SVD”), expressed in Sf9 insect cells and purified via affinity chromatography using Glutathion Sepharose as described above, was used as a kinase. As substrate for the kinase reaction the biotinylated peptide biotin-Ahx-AEEEEYFELVAKKK (C-terminus in amide form) (SEQ ID No. 6) was used which can be purchased e.g. form the company Biosynthan GmbH (Berlin-Buch, Germany).
For the assay 50 nl of a 100-fold concentrated solution of the test compound in DMSO was pipetted into either a black low volume 384 well microtiter plate or a black 1536 well microtiter plate (both Greiner Bio-One, Frickenhausen, Germany), 2 μl of a solution of EGFR in aqueous assay buffer [50 mM Hepes pH 7.0, 10 mM MgCl2, 1 mM dithiothreitol, 0.5 mM EGTA, 0.3 mM activated sodium ortho-vanadate, 0.005% (w/v) bovine serum albumin, 0.005% (v/v) Tween-20] were added and the mixture was incubated for 15 min at 22° C. to allow pre binding of the test compounds to the enzyme before the start of the kinase reaction. […] The concentration of EGFR was adjusted depending of the activity of the enzyme lot and was chosen appropriate to have the assay in the linear range, typical concentration was 15 pg/μl. The reaction was stopped by the addition of 3 μl of a solution of HTRF detection reagents (83.3 nM streptavidine-XL665 [Cisbio Bioassays, Codolet, France] and 1.67 nM PT66-Tb-Cryptate, a terbium-cryptate labelled anti-phospho-tyrosine antibody from Cisbio Bioassays [instead of the PT66 Tb cryptate PT66 Eu Chelate from Perkin Elmer can also be used]) in an aqueous EDTA-solution (133.3 mM EDTA, 0.2% (w/v) bovine serum albumin in 50 mM HEPES pH 7.5).
The resulting mixture was incubated 1 h at 22° C. to allow the binding of the biotinylated phosphorylated peptide to the streptavidine-XL665 and the PT66-Tb-Cryptate. Subsequently, the amount of phosphorylated substrate was evaluated by measurement of the resonance energy transfer from the PT66-Tb-Cryptate to the streptavidine-XL665. Therefore, the fluorescence emissions at 620 nm and 665 nm after excitation at 337 nm were measured in a HTRF reader, e.g. a Pherastar (BMG Labtechnologies, Offenburg, Germany) or a Viewlux (Perkin-Elmer). The ratio of the emissions at 665 nm and at […] was taken as the measure for the amount of phosphorylated substrate. The data were normalised (enzyme reaction without inhibitor=0% inhibition, all other assay components but no enzyme=100% inhibition).

[2] = molecular target: mutEGFR (D770_N771insNPG, T790); test: mutEGFR (D770_N771insNPG, T790) kinase assay; format: biochemical, human
[3] = tested on: BA/F3 (insSVD) cells; test: Ba/F3 cell survival assay (Cell Titer-Glo), EGFR-insSVD; format: cell-based; conditions: Mus musculus, BaF3, 48 h, without IL-3, with EGF
Protocol: 293T cells from ATCC were transfected with pBABEpuro expression constructs for WT EGFR or EGFR-insSVD, or EGFR-insSVD T790M, and pCL-Eco packaging vector using Fugene-6 transfection reagent from Promega. Plates were incubated at 37° C. for 48 h. Retrovirus was harvested by filtering the media supernatant through a 0.45 μm filter.
Ba/F3 cells purchased from DSMZ were grown in RPMI+10% FBS+10 ng/mL IL-3 and infected with filtered retroviral supernatant at a 1:2 dilution. Polybrene was added to a concentration of 8 μg/mL, plates were spun for 90 min, and incubated for 16 h at 37° C. 2 μg/mL puromycin was added to the infected cells 24 h after infection and cells were continually grown in the presence of puromycin and 10 ng/mL IL-3. Following stably expressing Ba/F3 cell lines were generated: Ba/F3-EGFR-WT, Ba/F3-EGFR-insSVD, Ba/F3-EGFR-insSVD T790M, (Ba/F3-vector-control).
For cell survival assays, Ba/F3 cells were grown to a density of 1-2 million cells per mL, spun down and resuspended in media without IL-3, and replated at a concentration of 200,000-500,000 cells per mL. The cells ectopically expressing WT EGFR, EGFR-insSVD, or EGFR-insSVD T790M were plated with 10 ng/mL Millipore Culture grade EGF. The cells ectopically expressing pBABEpuro empty vector were plated with 10 ng/mL IL-3.
2 days later, cells were plated in 50 μL in a 384 well plate at a concentration of 4000 cells per well for cells assayed in the absence of IL-3 and 2000 cells per well for cells assayed in the presence of IL-3. 100 nL of compound was added to each well using a 100 nL pin head, and plates were incubated at 37° C. for 48 h.
Cell viability was measured by adding 20 μL of Cell Titer-Glo Luminescent Cell Viability Reagent diluted 1:3 in PBS. Plates were sealed with Perkin Elmer Top-Seal, inverted several times to mix, and immediately centrifuged at 1000 rpm for 2 min. Plates were incubated in low light conditions for 8-10 min and luminescence was measured.

mutEGFR (D770_N771insNPG, T790), sequence (P00533 with tags, fused parts or gaps INS770NPG limits assumed): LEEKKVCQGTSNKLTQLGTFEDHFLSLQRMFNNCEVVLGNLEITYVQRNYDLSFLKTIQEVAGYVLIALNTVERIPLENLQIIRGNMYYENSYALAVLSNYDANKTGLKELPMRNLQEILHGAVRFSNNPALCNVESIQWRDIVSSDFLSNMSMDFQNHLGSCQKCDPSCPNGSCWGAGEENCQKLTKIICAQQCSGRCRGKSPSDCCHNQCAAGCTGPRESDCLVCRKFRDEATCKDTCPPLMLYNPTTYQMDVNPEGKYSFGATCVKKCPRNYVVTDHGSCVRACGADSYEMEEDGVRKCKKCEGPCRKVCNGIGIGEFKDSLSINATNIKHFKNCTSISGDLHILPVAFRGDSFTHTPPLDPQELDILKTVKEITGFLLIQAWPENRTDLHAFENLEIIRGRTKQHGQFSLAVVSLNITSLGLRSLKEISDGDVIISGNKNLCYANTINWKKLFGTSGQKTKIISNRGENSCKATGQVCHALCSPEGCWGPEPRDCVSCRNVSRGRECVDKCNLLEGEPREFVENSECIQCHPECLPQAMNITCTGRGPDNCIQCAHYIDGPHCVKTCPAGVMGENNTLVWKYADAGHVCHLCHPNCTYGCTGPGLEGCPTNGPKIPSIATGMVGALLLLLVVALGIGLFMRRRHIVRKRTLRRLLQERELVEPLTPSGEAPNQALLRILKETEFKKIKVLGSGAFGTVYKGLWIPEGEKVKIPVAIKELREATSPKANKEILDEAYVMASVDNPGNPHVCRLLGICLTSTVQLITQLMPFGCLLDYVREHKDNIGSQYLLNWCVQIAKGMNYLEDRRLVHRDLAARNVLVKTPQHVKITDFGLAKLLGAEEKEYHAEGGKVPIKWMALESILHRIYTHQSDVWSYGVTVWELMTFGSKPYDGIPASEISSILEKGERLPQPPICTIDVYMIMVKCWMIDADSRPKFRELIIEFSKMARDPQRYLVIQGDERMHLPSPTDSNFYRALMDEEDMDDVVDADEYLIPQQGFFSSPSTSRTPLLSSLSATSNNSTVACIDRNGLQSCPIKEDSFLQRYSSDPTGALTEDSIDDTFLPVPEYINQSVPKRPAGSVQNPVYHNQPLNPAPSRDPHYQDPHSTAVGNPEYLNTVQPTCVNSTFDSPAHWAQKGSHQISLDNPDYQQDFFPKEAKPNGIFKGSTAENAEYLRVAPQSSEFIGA
mutEGFR (D770_N771insSVD), sequence (P00533 with tags, fused parts or gaps INS767SVD limits assumed): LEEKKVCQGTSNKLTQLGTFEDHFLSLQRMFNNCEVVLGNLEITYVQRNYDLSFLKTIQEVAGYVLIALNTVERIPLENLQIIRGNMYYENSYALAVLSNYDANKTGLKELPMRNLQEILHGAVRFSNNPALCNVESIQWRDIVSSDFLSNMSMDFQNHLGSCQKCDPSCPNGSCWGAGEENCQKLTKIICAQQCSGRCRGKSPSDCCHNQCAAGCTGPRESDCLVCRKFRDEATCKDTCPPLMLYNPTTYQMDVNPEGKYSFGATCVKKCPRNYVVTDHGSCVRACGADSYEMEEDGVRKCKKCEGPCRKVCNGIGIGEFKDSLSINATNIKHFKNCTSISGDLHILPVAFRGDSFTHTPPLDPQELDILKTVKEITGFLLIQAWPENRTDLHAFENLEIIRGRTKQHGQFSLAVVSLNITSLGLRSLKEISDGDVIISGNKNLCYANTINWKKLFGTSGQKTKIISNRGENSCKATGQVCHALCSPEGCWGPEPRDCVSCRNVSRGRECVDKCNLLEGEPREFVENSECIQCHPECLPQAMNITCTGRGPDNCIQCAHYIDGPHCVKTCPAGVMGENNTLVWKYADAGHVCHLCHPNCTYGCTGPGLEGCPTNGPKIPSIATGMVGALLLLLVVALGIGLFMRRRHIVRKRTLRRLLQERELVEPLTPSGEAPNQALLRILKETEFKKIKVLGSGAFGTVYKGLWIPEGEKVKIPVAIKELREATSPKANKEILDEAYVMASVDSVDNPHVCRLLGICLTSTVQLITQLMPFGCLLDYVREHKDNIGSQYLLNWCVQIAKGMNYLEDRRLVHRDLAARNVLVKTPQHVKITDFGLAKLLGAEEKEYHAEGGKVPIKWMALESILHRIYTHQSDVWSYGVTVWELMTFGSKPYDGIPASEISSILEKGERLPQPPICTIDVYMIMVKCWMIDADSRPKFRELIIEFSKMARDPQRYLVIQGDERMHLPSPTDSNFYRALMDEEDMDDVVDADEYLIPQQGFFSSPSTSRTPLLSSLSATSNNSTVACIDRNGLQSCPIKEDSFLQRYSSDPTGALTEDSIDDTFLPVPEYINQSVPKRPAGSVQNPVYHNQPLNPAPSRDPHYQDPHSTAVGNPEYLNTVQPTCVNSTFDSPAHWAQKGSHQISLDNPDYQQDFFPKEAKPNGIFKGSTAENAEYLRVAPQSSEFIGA

| Compound | IC50 [1] [nM] | IC50 [2] [nM] | IC50 [3] [nM] |
| --- | --- | --- | --- |
| CN(C)C/C=C/C(=O)N1CCC[C@H]1COc1cnccc1-c1[nH]c2cccnc2c1-c1ccc(F)c(OC(F)F)c1 [Example 104, (2E)-1-[(2S)-2-{[(4-{3-[3-(difluoromethoxy)-4-fluorophenyl]-1H-pyrrolo[3,2-b]pyridin-2-yl}pyridin-3-yl)oxy]methyl}pyrrolidin-1-yl]-4-(dimethylamino)but-2-en-1-one] | 36.9 | 149 | 1380 |
| C#CC(=O)N1CC[C@@H](Oc2cnccc2-c2[nH]c3cccnc3c2-c2cc(Cl)ccc2F)C1 [Example 128, 1-[(3R)-3-({4-[3-(5-chloro-2-fluorophenyl)-1H-pyrrolo[3,2-b]pyridin-2-yl]pyridin-3-yl}oxy)pyrrolidin-1-yl]prop-2-yn-1-one] | 63 | 208 | 765 |
| C=CC(=O)N1C[C@@H](F)C[C@H]1COc1cnccc1-c1[nH]c2cccnc2c1-c1ccccc1 [Example 114, 1-[(2S,4S)-4-fluoro-2-({[4-(3-phenyl-1H-pyrrolo[3,2-b]pyridin-2-yl)pyridin-3-yl]oxy}methyl)pyrrolidin-1-yl]prop-2-en-1-one] | 0.96 | 4.35 | 38.9 |
| C=CC(=O)N1CCOCC1COc1cnccc1-c1[nH]c2cccnc2c1-c1ccccc1 (stereo not drawn) [Example 149, 1-[3-({[4-(3-phenyl-1H-pyrrolo[3,2-b]pyridin-2-yl)pyridin-3-yl]oxy}methyl)morpholin-4-yl]prop-2-en-1-one] | 775 | 17700 | 1290 |
| C=CS(=O)(=O)N(C)CCOc1cnccc1-c1[nH]c2cccnc2c1-c1cc(Cl)ccc1F [Example 60, N-[2-({4-[3-(5-chloro-2-fluorophenyl)-1H-pyrrolo[3,2-b]pyridin-2-yl]pyridin-3-yl}oxy)ethyl]-N-methylethenesulfonamide] | 0.809 | 2.02 | 154 |
| C=CS(=O)(=O)N1CCC[C@H]1COc1cnccc1-c1[nH]c2cccnc2c1-c1cc(C(F)(F)F)ccc1F [Example 101, 2-(3-{[(2S)-1-(ethenesulfonyl)pyrrolidin-2-yl]methoxy}pyridin-4-yl)-3-[2-fluoro-5-(trifluoromethyl)phenyl]-1H-pyrrolo[3,2-b]pyridine] | 52.2 | 89.8 | 957 |
| C=CC(=O)N1CCC(Oc2cnccc2-c2[nH]c3cccnc3c2-c2ccccc2)C1 (racemic) [Example 116, 1-[(3RS)-3-{[4-(3-phenyl-1H-pyrrolo[3,2-b]pyridin-2-yl)pyridin-3-yl]oxy}pyrrolidin-1-yl]prop-2-en-1-one] | 52.4 | 215 | 1520 |
| C=CC(=O)N1CCC[C@H]1COc1cnccc1-c1[nH]c2c(C)ccnc2c1-c1ccccc1 [Example 135, 1-[(2S)-2-({[4-(7-methyl-3-phenyl-1H-pyrrolo[3,2-b]pyridin-2-yl)pyridin-3-yl]oxy}methyl)pyrrolidin-1-yl]prop-2-en-1-one] | 0.589 | 1.83 | 16.1 |
| C=CC(=O)N1CCC[C@H]1COc1cnccc1-c1[nH]c2cccnc2c1-c1ccc2cccnc2c1 [Example 79, 1-{(2S)-2-[({4-[3-(quinolin-7-yl)-1H-pyrrolo[3,2-b]pyridin-2-yl]pyridin-3-yl}oxy)methyl]pyrrolidin-1-yl}prop-2-en-1-one] | 4.41 | 9.38 | 367 |
| C=CS(=O)(=O)N1CCC[C@H]1COc1cnccc1-c1[nH]c2c(C)ccnc2c1-c1cc(Cl)ccc1F [Example 138, 3-(5-chloro-2-fluorophenyl)-2-(3-{[(2S)-1-(ethenesulfonyl)pyrrolidin-2-yl]methoxy}pyridin-4-yl)-7-methyl-1H-pyrrolo[3,2-b]pyridine] | 0.582 | 1.36 | 27 |
| C#Cc1cccc(-c2c(-c3ccncc3OC[C@@H]3CCCN3C(=O)C=C)[nH]c3cccnc23)c1 [Example 102, 1-{(2S)-2-[({4-[3-(3-ethynylphenyl)-1H-pyrrolo[3,2-b]pyridin-2-yl]pyridin-3-yl}oxy)methyl]pyrrolidin-1-yl}prop-2-en-1-one] | 0.417 | 1.29 | 135 |
| C=CC(=O)N1CCC[C@H]1COc1cnccc1-c1[nH]c2cccnc2c1-c1ccc2ccccc2c1 [Example 80, 1-{(2S)-2-[({4-[3-(naphthalen-2-yl)-1H-pyrrolo[3,2-b]pyridin-2-yl]pyridin-3-yl}oxy)methyl]pyrrolidin-1-yl}prop-2-en-1-one] | 0.583 | 1.86 | 162 |
| C=CC(=O)N1CCC[C@H]1COc1cnccc1-c1[nH]c2cccnc2c1-c1cc(C#N)ccc1F [Example 90, 4-fluoro-3-[2-(3-{[(2S)-1-(prop-2-enoyl)pyrrolidin-2-yl]methoxy}pyridin-4-yl)-1H-pyrrolo[3,2-b]pyridin-3-yl]benzonitrile] | 34.3 | 62.5 | 999 |
| C=CC(=O)N1CCC[C@H]1COc1cnccc1-c1[nH]c2cccnc2c1-c1ccc2ccsc2c1 [Example 81, 1-{(2S)-2-[({4-[3-(1-benzothiophen-6-yl)-1H-pyrrolo[3,2-b]pyridin-2-yl]pyridin-3-yl}oxy)methyl]pyrrolidin-1-yl}prop-2-en-1-one] | 0.391 | 1.29 | 57.4 |
| C=CC(=O)N(C)CCOc1cnccc1-c1[nH]c2cccnc2c1-c1cc(C)ccc1F [Example 47, N-[2-({4-[3-(2-fluoro-5-methylphenyl)-1H-pyrrolo[3,2-b]pyridin-2-yl]pyridin-3-yl}oxy)ethyl]-N-methylprop-2-enamide] | 32.8 | 19.6 | 493 |
| C=CC(=O)N1CCC[C@H]1COc1cnccc1-c1[nH]c2cccnc2c1-c1cccc(OC)c1 [Example 83, 1-{(2S)-2-[({4-[3-(3-methoxyphenyl)-1H-pyrrolo[3,2-b]pyridin-2-yl]pyridin-3-yl}oxy)methyl]pyrrolidin-1-yl}prop-2-en-1-one] | 2.09 | 7.63 | 132 |
| C=CC(=O)N1CCC(Oc2cnccc2-c2[nH]c3cccnc3c2-c2cc(Cl)ccc2F)C1 (racemic) [Example 127, 1-[(3RS)-3-({4-[3-(5-chloro-2-fluorophenyl)-1H-pyrrolo[3,2-b]pyridin-2-yl]pyridin-3-yl}oxy)pyrrolidin-1-yl]prop-2-en-1-one] | 25.4 | 97.6 | 691 |
